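Tested at 5 concentrations; 48 h exposure; 96-well plates; endpoints linearly interpolated, else capped at highest concentration. The concentration for 50% growth inhibition is given as GI50. TGI is the concentration that stops growth completely.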
Columns and labels:
Experiment in all cases: NCI-60 cell line screen, 48 h
BT-549 breast = test system: BT-549 breast
MOLT-4 leukemia = test system: MOLT-4 leukemia
SNB-75 CNS = test system: SNB-75 CNS
UO-31 renal = test system: UO-31 renal
UACC-257 melanoma = test system: UACC-257 melanoma
LOX IMVI melanoma = test system: LOX IMVI melanoma
A549 NSCLC = test system: A549 NSCLC
K-562 leukemia = test system: K-562 leukemia
OVCAR-3 ovarian = test system: OVCAR-3 ovarian
NCI-H460 lung = test system: NCI-H460 lung
TK-10 renal = test system: TK-10 renal
HOP-92 NSCLC = test system: HOP-92 NSCLC
HS 578T breast = test system: HS 578T breast
ACHN renal = test system: ACHN renal
CAKI-1 renal = test system: CAKI-1 renal
OVCAR-4 ovarian = test system: OVCAR-4 ovarian
HT29 colon = test system: HT29 colon
EKVX NSCLC = test system: EKVX NSCLC
M14 melanoma = test system: M14 melanoma
SK-MEL-2 melanoma = test system: SK-MEL-2 melanoma
SK-MEL-28 melanoma = test system: SK-MEL-28 melanoma
SK-OV-3 ovarian = test system: SK-OV-3 ovarian
KM12 colon = test system: KM12 colon
SK-MEL-5 melanoma = test system: SK-MEL-5 melanoma
A498 renal = test system: A498 renal
PC-3 prostate = test system: PC-3 prostate
IGROV1 ovarian = test system: IGROV1 ovarian
MCF7 breast = test system: MCF7 breast
RXF 393 renal = test system: RXF 393 renal
T-47D breast = test system: T-47D breast
MALME-3M melanoma = test system: MALME-3M melanoma
HCT-116 colon = test system: HCT-116 colon
COLO 205 colon = test system: COLO 205 colon
DU-145 prostate = test system: DU-145 prostate
RPMI-8226 leukemia = test system: RPMI-8226 leukemia
786-0 renal = test system: 786-0 renal
SF-539 CNS = test system: SF-539 CNS
HOP-62 NSCLC = test system: HOP-62 NSCLC
UACC-62 melanoma = test system: UACC-62 melanoma
SR leukemia = test system: SR leukemia
HCC-2998 colon = test system: HCC-2998 colon
SF-268 CNS = test system: SF-268 CNS
MDA-MB-231 breast = test system: MDA-MB-231 breast
HCT-15 colon = test system: HCT-15 colon
NCI-H522 lung = test system: NCI-H522 lung
OVCAR-8 ovarian = test system: OVCAR-8 ovarian
NCI-H226 lung = test system: NCI-H226 lung
SF-295 CNS = test system: SF-295 CNS
U251 CNS = test system: U251 CNS
MDA-MB-435 = test system: MDA-MB-435
SNB-19 CNS = test system: SNB-19 CNS
NCI/ADR-RES ovarian = test system: NCI/ADR-RES ovarian
OVCAR-5 ovarian = test system: OVCAR-5 ovarian
SW-620 colon = test system: SW-620 colon
SN12C renal = test system: SN12C renal
NCI-H23 lung = test system: NCI-H23 lung
CCRF-CEM leukemia = test system: CCRF-CEM leukemia

C[C@H](CCCNCCCNCCCN)[C@H]1CC[C@H]2[C@@H]3[C@H](OCCCN)C[C@H]4C[C@H](OCCCN)CC[C@]4(C)[C@H]3C[C@H](OCCCN)[C@]12C showed a GI50 (BT-549 breast) of 0.923 µM, a TGI (BT-549 breast) of 5.1 µM and a GI50 (MOLT-4 leukemia) of 1.09 µM. The TGI (MOLT-4 leukemia) was 8.12 µM, the GI50 (SNB-75 CNS) was 8.49 µM and the TGI (SNB-75 CNS) was > 83.9 µM. For the same compound, the GI50 (UO-31 renal) was 0.913 µM, the TGI (UO-31 renal) was > 58.2 µM and the GI50 (UACC-257 melanoma) was 9.63 µM. For the same compound, the TGI (UACC-257 melanoma) was 59.5 µM, the GI50 (LOX IMVI melanoma) was 0.888 µM and the TGI (LOX IMVI melanoma) was 9.41 µM. The GI50 (A549 NSCLC) was 2.08 µM, the TGI (A549 NSCLC) was 18.3 µM and the GI50 (K-562 leukemia) was 0.458 µM. The TGI (K-562 leukemia) was 3.6 µM, the GI50 (OVCAR-3 ovarian) was 14.6 µM and the TGI (OVCAR-3 ovarian) was > 62.5 µM. For the same compound, the GI50 (NCI-H460 lung) was 4.72 µM, the TGI (NCI-H460 lung) was > 34.7 µM and the GI50 (TK-10 renal) was 2.18 µM. It also gave a TGI (TK-10 renal) of 51.6 µM, a GI50 (HOP-92 NSCLC) of 0.584 µM and a TGI (HOP-92 NSCLC) of 11.9 µM. It also gave a GI50 (HS 578T breast) of 0.918 µM, a TGI (HS 578T breast) of 12.5 µM and a GI50 (ACHN renal) of 1.41 µM. For the same compound, the TGI (ACHN renal) was 27.7 µM, the GI50 (CAKI-1 renal) was 16 µM and the TGI (CAKI-1 renal) was > 100 µM. The GI50 (OVCAR-4 ovarian) was > 45.2 µM, the TGI (OVCAR-4 ovarian) was > 100 µM and the GI50 (HT29 colon) was 0.821 µM. The TGI (HT29 colon) was 13.8 µM, the GI50 (EKVX NSCLC) was 5.43 µM and the TGI (EKVX NSCLC) was > 43.9 µM. For the same compound, the GI50 (M14 melanoma) was 0.874 µM, the TGI (M14 melanoma) was 3.88 µM and the GI50 (SK-MEL-2 melanoma) was 47.5 µM. For the same compound, the TGI (SK-MEL-2 melanoma) was > 100 µM, the GI50 (SK-MEL-28 melanoma) was 0.573 µM and the TGI (SK-MEL-28 melanoma) was 4.13 µM. For the same compound, the GI50 (SK-OV-3 ovarian) was 35.7 µM, the TGI (SK-OV-3 ovarian) was > 100 µM and the GI50 (KM12 colon) was 0.355 µM. It also gave a TGI (KM12 colon) of 6.05 µM, a GI50 (SK-MEL-5 melanoma) of 0.626 µM and a TGI (SK-MEL-5 melanoma) of 3.29 µM. For the same compound, the GI50 (A498 renal) was > 100 µM, the TGI (A498 renal) was > 100 µM and the GI50 (PC-3 prostate) was 18.3 µM. The TGI (PC-3 prostate) was > 100 µM, the GI50 (IGROV1 ovarian) was 0.421 µM and the TGI (IGROV1 ovarian) was 8.86 µM. The GI50 (MCF7 breast) was 6.46 µM, the TGI (MCF7 breast) was > 26.4 µM and the GI50 (RXF 393 renal) was 6.29 µM. For the same compound, the TGI (RXF 393 renal) was 46.9 µM, the GI50 (T-47D breast) was 2.59 µM and the TGI (T-47D breast) was > 37 µM. For the same compound, the GI50 (MALME-3M melanoma) was 4.27 µM, the TGI (MALME-3M melanoma) was 26 µM and the GI50 (HCT-116 colon) was 0.482 µM. For the same compound, the TGI (HCT-116 colon) was 10.2 µM, the GI50 (COLO 205 colon) was 1.1 µM and the TGI (COLO 205 colon) was 15.3 µM. For the same compound, the GI50 (DU-145 prostate) was 3.34 µM, the TGI (DU-145 prostate) was 21.3 µM and the GI50 (RPMI-8226 leukemia) was 0.418 µM. It also gave a TGI (RPMI-8226 leukemia) of 1.54 µM, a GI50 (786-0 renal) of 0.824 µM and a TGI (786-0 renal) of 5.49 µM. The GI50 (SF-539 CNS) was 0.98 µM, the TGI (SF-539 CNS) was 3.46 µM and the GI50 (HOP-62 NSCLC) was 1.44 µM. The TGI (HOP-62 NSCLC) was > 31.5 µM, the GI50 (UACC-62 melanoma) was 0.871 µM and the TGI (UACC-62 melanoma) was 13.3 µM. It also gave a GI50 (SR leukemia) of 0.326 µM, a TGI (SR leukemia) of 1.66 µM and a GI50 (HCC-2998 colon) of 0.653 µM. It also gave a TGI (HCC-2998 colon) of 5.02 µM, a GI50 (SF-268 CNS) of 1.54 µM and a TGI (SF-268 CNS) of 16.1 µM. The GI50 (MDA-MB-231 breast) was 0.652 µM, the TGI (MDA-MB-231 breast) was 18.8 µM and the GI50 (HCT-15 colon) was 3.14 µM. For the same compound, the TGI (HCT-15 colon) was > 100 µM, the GI50 (NCI-H522 lung) was 11.1 µM and the TGI (NCI-H522 lung) was 58.6 µM. The GI50 (OVCAR-8 ovarian) was 2.27 µM, the TGI (OVCAR-8 ovarian) was > 55.8 µM and the TGI (NCI-H226 lung) was > 76.7 µM. For the same compound, the GI50 (SF-295 CNS) was 1.33 µM, the TGI (SF-295 CNS) was 23.9 µM and the GI50 (U251 CNS) was 2.65 µM. It also gave a TGI (U251 CNS) of 19.7 µM, a GI50 (MDA-MB-435) of 0.34 µM and a TGI (MDA-MB-435) of 1.14 µM. For the same compound, the GI50 (SNB-19 CNS) was 1.92 µM, the TGI (SNB-19 CNS) was > 83.4 µM and the GI50 (NCI/ADR-RES ovarian) was 4.75 µM. For the same compound, the TGI (NCI/ADR-RES ovarian) was 69.3 µM, the GI50 (OVCAR-5 ovarian) was 17.5 µM and the TGI (OVCAR-5 ovarian) was > 100 µM. For the same compound, the GI50 (SW-620 colon) was 0.98 µM, the TGI (SW-620 colon) was 8.2 µM and the GI50 (SN12C renal) was 1.61 µM. It also gave a TGI (SN12C renal) of 24.2 µM, a GI50 (NCI-H23 lung) of 1.48 µM and a TGI (NCI-H23 lung) of 10.8 µM. It also gave a GI50 (CCRF-CEM leukemia) of 3.82 µM and a TGI (CCRF-CEM leukemia) of 31.1 µM.

From PubChem BioAssay (NCI)
